Results from ChEMBL document CHEMBL3885881, “DrugMatrix”.

Species on record: Rattus norvegicus
Assay: DrugMatrix - Regimen: Daily Repeat
Assay type: toxicity, organism-based, Sprague-Dawley
Design: regimen Daily Repeat, gender Male, age 6-8 weeks
Settings: in vivo, po, route oral GAVAGE, vehicle 100 % WATER; for ABSOLUTE BASOPHIL / ABSOLUTE EOSINOPHIL / ABSOLUTE LYMPHOCYTE / ABSOLUTE MONOCYTE / ABSOLUTE SEGMENTED NEUTROPHIL / BASOPHIL / EOSINOPHIL / ERYTHROCYTE COUNT / HEMATOCRIT / HEMOGLOBIN / LEUKOCYTE COUNT / LYMPHOCYTE / MEAN CORPUSCULAR HEMOGLOBIN / MEAN CORPUSCULAR HEMOGLOBIN CONCENTRATION / MEAN CORPUSCULAR VOLUME / MONOCYTE / NEUTROPHIL / NUCLEATED RED BLOOD CELLS / PLATELET COUNT: tissue Blood; for ALANINE AMINOTRANSFERASE / ALBUMIN / ALKALINE PHOSPHATASE / ASPARTATE AMINOTRANSFERASE / BLOOD UREA NITROGEN / CARBON DIOXIDE / CHLORIDE / CHOLESTEROL / CREATINE PHOSPHOKINASE / CREATININE / GLUCOSE / LACTATE DEHYDROGENASE / LIPASE / PHOSPHORUS / POTASSIUM / SODIUM / TOTAL BILIRUBIN / TOTAL PROTEIN / URIC ACID: tissue Plasma
[1] = 6 mg/kg, 120 h, dose level Low, time 5 day
[2] = 414 mg/kg, 72 h, dose level High, time 3 day
[3] = 414 mg/kg, 120 h, dose level High, time 5 day

SMILES: CN1CCN(C(=O)OC2c3nccnc3C(=O)N2c2ccc(Cl)cn2)CC1 (centres undefined) [ZOPICLONE]
- ABSOLUTE BASOPHIL [1]: 0 CELLS/uL
- ABSOLUTE EOSINOPHIL [1]: 89.67 CELLS/uL
- ABSOLUTE LYMPHOCYTE [1]: 11847.67 CELLS/uL
- ABSOLUTE MONOCYTE [1]: 80.67 CELLS/uL
- ABSOLUTE SEGMENTED NEUTROPHIL [1]: 982 CELLS/uL
- BASOPHIL [1]: 0%
- EOSINOPHIL [1]: 0.67%
- ERYTHROCYTE COUNT [1]: 6 x10E6/uL
- HEMATOCRIT [1]: 36.37%
- HEMOGLOBIN [1]: 14 G/DL
- LEUKOCYTE COUNT [1]: 13 x10E3/uL
- LYMPHOCYTE [1]: 91%
- MEAN CORPUSCULAR HEMOGLOBIN [1]: 23.3 pg
- MEAN CORPUSCULAR HEMOGLOBIN CONCENTRATION [1]: 38.5 G/DL
- MEAN CORPUSCULAR VOLUME [1]: 60.6 fL
- MONOCYTE [1]: 0.67%
- NEUTROPHIL [1]: 7.67%
- NUCLEATED RED BLOOD CELLS [1]: 0 /100WBC
- PLATELET COUNT [1]: 827.33 x10E3/uL
- ALANINE AMINOTRANSFERASE [1]: 51.67 u/L
- ALBUMIN [1]: 4.07 G/DL
- ALKALINE PHOSPHATASE [1]: 386.67 u/L
- ASPARTATE AMINOTRANSFERASE [1]: 91.33 u/L
- BLOOD UREA NITROGEN [1]: 15 mg/dL
- CARBON DIOXIDE [1]: 32 mmol/L
- CHLORIDE [1]: 101.67 MEQ/L
- CHOLESTEROL [1]: 61.33 mg/dL
- CREATINE PHOSPHOKINASE [1]: 428.33 u/L
- CREATININE [1]: 0.13 mg/dL
- GLUCOSE [1]: 151.33 mg/dL
- LACTATE DEHYDROGENASE [1]: 157.67 u/L
- LIPASE [1]: 10 u/L
- PHOSPHORUS [1]: 12.2 mg/dL
- POTASSIUM [1]: 6.32 MEQ/L
- SODIUM [1]: 146.2 MEQ/L
- TOTAL BILIRUBIN [1]: 0.17 mg/dL
- TOTAL PROTEIN [1]: 6.03 G/DL
- URIC ACID [1]: 1.17 mg/dL
- ABSOLUTE BASOPHIL [2]: 0 CELLS/uL
- ABSOLUTE EOSINOPHIL [2]: 54 CELLS/uL
- ABSOLUTE LYMPHOCYTE [2]: 11865 CELLS/uL
- ABSOLUTE MONOCYTE [2]: 279 CELLS/uL
- ABSOLUTE SEGMENTED NEUTROPHIL [2]: 4168.67 CELLS/uL
- BASOPHIL [2]: 0%
- EOSINOPHIL [2]: 0.33%
- ERYTHROCYTE COUNT [2]: 5.87 x10E6/uL
- HEMATOCRIT [2]: 36.97%
- HEMOGLOBIN [2]: 14.13 G/DL
- LEUKOCYTE COUNT [2]: 16.37 x10E3/uL
- LYMPHOCYTE [2]: 72.33%
- MEAN CORPUSCULAR HEMOGLOBIN [2]: 24.1 pg
- MEAN CORPUSCULAR HEMOGLOBIN CONCENTRATION [2]: 38.23 G/DL
- MEAN CORPUSCULAR VOLUME [2]: 63.03 fL
- MONOCYTE [2]: 1.67%
- NEUTROPHIL [2]: 25.67%
- NUCLEATED RED BLOOD CELLS [2]: 0 /100WBC
- PLATELET COUNT [2]: 1420.33 x10E3/uL
- ALANINE AMINOTRANSFERASE [2]: 76 u/L
- ALBUMIN [2]: 3.9 G/DL
- ALKALINE PHOSPHATASE [2]: 416.33 u/L
- ASPARTATE AMINOTRANSFERASE [2]: 81 u/L
- BLOOD UREA NITROGEN [2]: 15.67 mg/dL
- CARBON DIOXIDE [2]: 31.67 mmol/L
- CHLORIDE [2]: 101.33 MEQ/L
- CHOLESTEROL [2]: 79 mg/dL
- CREATINE PHOSPHOKINASE [2]: 490.67 u/L
- CREATININE [2]: 0.17 mg/dL
- GLUCOSE [2]: 142.33 mg/dL
- LACTATE DEHYDROGENASE [2]: 208 u/L
- LIPASE [2]: 10.67 u/L
- PHOSPHORUS [2]: 9.37 mg/dL
- POTASSIUM [2]: 5.75 MEQ/L
- SODIUM [2]: 145.07 MEQ/L
- TOTAL BILIRUBIN [2]: 0.13 mg/dL
- TOTAL PROTEIN [2]: 5.97 G/DL
- URIC ACID [2]: 0.43 mg/dL
- ABSOLUTE BASOPHIL [3]: 0 CELLS/uL
- ABSOLUTE EOSINOPHIL [3]: 34 CELLS/uL
- ABSOLUTE LYMPHOCYTE [3]: 13648.67 CELLS/uL
- ABSOLUTE MONOCYTE [3]: 500 CELLS/uL
- ABSOLUTE SEGMENTED NEUTROPHIL [3]: 2484 CELLS/uL
- BASOPHIL [3]: 0%
- EOSINOPHIL [3]: 0.33%
- ERYTHROCYTE COUNT [3]: 6.38 x10E6/uL
- HEMATOCRIT [3]: 38.3%
- HEMOGLOBIN [3]: 14.7 G/DL
- LEUKOCYTE COUNT [3]: 16.67 x10E3/uL
- LYMPHOCYTE [3]: 81%
- MEAN CORPUSCULAR HEMOGLOBIN [3]: 23.07 pg
- MEAN CORPUSCULAR HEMOGLOBIN CONCENTRATION [3]: 38.37 G/DL
- MEAN CORPUSCULAR VOLUME [3]: 60.13 fL
- MONOCYTE [3]: 3%
- NEUTROPHIL [3]: 15.67%
- NUCLEATED RED BLOOD CELLS [3]: 0 /100WBC
- PLATELET COUNT [3]: 1154.67 x10E3/uL
- ALANINE AMINOTRANSFERASE [3]: 76.67 u/L
- ALBUMIN [3]: 3.57 G/DL
- ALKALINE PHOSPHATASE [3]: 365 u/L
- ASPARTATE AMINOTRANSFERASE [3]: 80.33 u/L
- BLOOD UREA NITROGEN [3]: 15.33 mg/dL
- CARBON DIOXIDE [3]: 30.33 mmol/L
- CHLORIDE [3]: 102 MEQ/L
- CHOLESTEROL [3]: 68 mg/dL
- CREATINE PHOSPHOKINASE [3]: 261.33 u/L
- CREATININE [3]: 0.22 mg/dL
- GLUCOSE [3]: 118.67 mg/dL
- LACTATE DEHYDROGENASE [3]: 110.33 u/L
- LIPASE [3]: 11 u/L
- PHOSPHORUS [3]: 11.23 mg/dL
- POTASSIUM [3]: 6.36 MEQ/L
- SODIUM [3]: 146.63 MEQ/L
- TOTAL BILIRUBIN [3]: 0.1 mg/dL
- TOTAL PROTEIN [3]: 5.73 G/DL
- URIC ACID [3]: 1.53 mg/dL
